Source: PubChem BioAssay (NCI)
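Grown in 96-well plates, cells were treated for 48 hours with each compound at five concentrations. Insufficient inhibition: endpoint recorded as highest concentration tested. TGI is the concentration that stops growth completely.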

Columns and labels:
Assay in all cases: NCI tumour cell line growth inhibition, 48 h
[1] = system: MDA-MB-435
[2] = system: CCRF-CEM leukemia
[3] = system: A498 renal
[4] = system: KM12 colon
[5] = system: HOP-92 NSCLC
[6] = system: NCI-H522 lung
[7] = system: U251 CNS
[8] = system: OVCAR-4 ovarian
[9] = system: CAKI-1 renal
[10] = system: TK-10 renal
[11] = system: SN12C renal
[12] = system: RPMI-8226 leukemia
[13] = system: NCI-H23 lung
[14] = system: LOX IMVI melanoma
[15] = system: SF-539 CNS
[16] = system: OVCAR-8 ovarian
[17] = system: HL-60(TB) leukemia
[18] = system: MCF7 breast
[19] = system: UO-31 renal
[20] = system: SK-MEL-2 melanoma
[21] = system: SNB-19 CNS
[22] = system: A549 NSCLC
[23] = system: NCI-H460 lung
[24] = system: SK-OV-3 ovarian
[25] = system: HCT-116 colon
[26] = system: MDA-MB-231 breast
[27] = system: NCI/ADR-RES ovarian
[28] = system: UACC-62 melanoma
[29] = system: IGROV1 ovarian
[30] = system: 786-0 renal
[31] = system: SF-268 CNS
[32] = system: OVCAR-5 ovarian
[33] = system: M14 melanoma
[34] = system: HT29 colon
[35] = system: SK-MEL-28 melanoma
[36] = system: SK-MEL-5 melanoma
[37] = system: SR leukemia
[38] = system: EKVX NSCLC
[39] = system: MDA-N
[40] = system: SNB-75 CNS
[41] = system: MOLT-4 leukemia
[42] = system: HCT-15 colon
[43] = system: COLO 205 colon
[44] = system: HOP-62 NSCLC
[45] = system: NCI-H226 lung
[46] = system: DU-145 prostate
[47] = system: HS 578T breast
[48] = system: RXF 393 renal
[49] = system: SW-620 colon
[50] = system: BT-549 breast
[51] = system: K-562 leukemia
[52] = system: PC-3 prostate
[53] = system: ACHN renal
[54] = system: MALME-3M melanoma
[55] = system: SF-295 CNS
[56] = system: UACC-257 melanoma
[57] = system: OVCAR-3 ovarian
[58] = system: T-47D breast

Measured: TGI

COC(=O)C1C(OS(=O)(=O)O)CCC2CN3CCc4c([nH]c5ccccc45)C3CC21 (stereo not drawn)
> 100 µM: all assays above
